Where two headings read alike, the source gives them in different places.

These results are taken from PMC9775004 (Biosensors, 2022).

One test deals with FILLac10N0C. The experiment in a line: FRET emission ratio (Venus to mTFP) response of purified FILLac10N0C. Type of test: binding, Salmonella enterica serovar Typhimurium LT2. The procedure: The FILLac expression vectors were constructed based on the plasmid pETDuet-mTFP-Venus carrying mTFP gene and Venus gene. The original STlldR gene, its truncated variants or variants with artificial linkers were inserted between the mTFP gene and Venus gene by T5 exonuclease DNA assembly method (TEDA) to construct pETDuet-FILLac0N0C and its variants.
The purified FILLac and different compounds were diluted with 50 mM Tris-HCl buffer (pH 7.4), and then mixed at a volume ratio of 3:1 into a black 96-well microplate for a total detection volume of 100 μL. The final concentration of FILLac in the reaction mixture was 1 μM. The fluorescence intensities of FILLac at 485 nm (mTFP) and 528 nm (Venus) were detected by using an EnSight multifunctional microplate detector (PerkinElmer, USA) with excitation at 430 nm. […] The maximum ratio changes (ΔRmax) were calculated according to the following formula:(2) ΔRmax=−Rmax−Rmin/Rmin. […]

For the next test, the system named is PaLldR. Kind of test: Fluorescence-based thermal shift (FTS) assay with PaLldR. Type of test: binding, Pseudomonas aeruginosa PAO1. The following applies: 1 mM compound, 10 μM LldR.
A further test concerns the target T1, EcLldR (Escherichia coli, UniProt P0ACL7).
T1 construct: His tag (inferred from pET28a and HisTrap purification); made in house; host or cells: E. coli BL21 (DE3)
Kind of test: Fluorescence-based thermal shift (FTS) assay with EcLldR. The class given is binding, E. coli MG1655. The following applies: 1 mM compound, 10 μM LldR.

In the next test the test system is PfLldR. Kind of test: Fluorescence-based thermal shift (FTS) assay with PfLldR. Type of test: binding, P. fluorescens A506. The conditions noted are these: 1 mM compound, 10 μM LldR.

T1 sequence (P0ACL7 whole entry): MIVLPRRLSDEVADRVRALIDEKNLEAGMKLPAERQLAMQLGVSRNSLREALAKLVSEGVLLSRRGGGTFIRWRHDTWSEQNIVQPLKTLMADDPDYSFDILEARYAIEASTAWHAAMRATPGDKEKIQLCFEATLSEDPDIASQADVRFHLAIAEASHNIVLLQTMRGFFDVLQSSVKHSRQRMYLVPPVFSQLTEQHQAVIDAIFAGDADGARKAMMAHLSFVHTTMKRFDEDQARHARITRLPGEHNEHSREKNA
Description for EcLldR: (§1) The gene STlldR encoding LldR of S. Typhimurium LT2 (STLldR) was amplified from genome of the strain, and then ligated into the plasmid pET28a to construct pET28a-STlldR. The recombinant plasmid pET28a-STlldR was transformed into E. coli BL21 (DE3) for STLldR expression. The expression strain was cultured in LB medium at 37 °C until an optical density at 600 nm (OD600) of 0.6 and induced with 1 mM isopropyl-β-D-thiogalactoside (IPTG) at 16 °C for 12 h. […] The purified STLldR was analyzed by 13% sodium dodecyl sulfate-polyacrylamide gel electrophoresis (SDS-PAGE). The protein concentration was determined using a Bradford protein assay kit (Sangon, Shanghai, China), and stored at –80 °C. […]
(§2) FTS assays were performed using a LightCycler 480 system (Roche, Indianapolis, IN, USA) with the filter set to excitation wavelength 465 nm and emission wavelength 580 nm for SYPRO orange. […] The melting temperature (Tm) of LldR was calculated from the negative first derivative value of the raw fluorescence data. Thermal shift temperature (ΔTm) was calculated by subtracting the Tm of the control from the Tm of LldR with the addition of different compounds. […]
Description for PaLldR: as §1, §2
Description for PfLldR: as §1, §2

For `O=C(O)CCC(=O)C(=O)O` [2-ketoglutarate], in the test with FILLac10N0C (50 μM compound), the “fluorescence emission ratio change of FILLac10N0C (specificity analysis)” value (“fluorescence emission ratio change” below) is “did not change the emission ratio”.
On to `[Ca+2]` [Ca^2+], for which the “fluorescence emission ratio change” value in the test on FILLac10N0C (50 μM compound) is “did not change the emission ratio”.
On the same count and under the same terms, the value for `O=C(O)CC[C@@H](O)C(=O)O` [D-2-hydroxyglutarate] was “did not change the emission ratio”.
Regarding `C[C@@H](O)C(=O)O` [D-lactate], the “change in Tm (ΔTm) of PaLldR” value in the test with PaLldR is recorded as “significant changes in Tm”. Also, the “change in Tm (ΔTm) of EcLldR” value at EcLldR is recorded as “significant changes in Tm”. Besides, the “change in Tm (ΔTm) of PfLldR” value in the test with PfLldR was “significant changes in Tm”.
Turning to `O=C(O)C[C@@H](O)C(=O)O` [D-malate], the “fluorescence emission ratio change” value in the test on FILLac10N0C (50 μM compound) was “did not change the emission ratio”.
For `[K+]` [K^+], the “fluorescence emission ratio change” value with FILLac10N0C is “did not change the emission ratio”.
For the compound `O=C(O)CC[C@H](O)C(=O)O` [L-2-hydroxyglutarate], in the test on FILLac10N0C (50 μM compound), the “fluorescence emission ratio change” value was “did not change the emission ratio”.
The same measure, in the same setting: the value for `N[C@@H](CCC(=O)O)C(=O)O` [L-glutamate] was “did not change the emission ratio”.
In the case of `C[C@H](O)C(=O)O` [L-lactate], the “change in Tm (ΔTm) of PaLldR” value with PaLldR was “significant changes in Tm”. Moreover, the “change in Tm (ΔTm) of EcLldR” value at EcLldR is listed as “significant changes in Tm”. Further, the “change in Tm (ΔTm) of PfLldR” value in the test on PfLldR is “significant changes in Tm”.
Take `O=C(O)C[C@H](O)C(=O)O` [L-malate]: the “fluorescence emission ratio change” value in the test on FILLac10N0C (50 μM compound) was “did not change the emission ratio”.
`[Mg+2]` [Mg^2+]: the “fluorescence emission ratio change” value with FILLac10N0C (50 μM compound) was “did not change the emission ratio”.
On to `N` [NH4^+], for which the “fluorescence emission ratio change” value with FILLac10N0C (50 μM compound) is “did not change the emission ratio”.
Same read-out and setting: as for `[Na+]` [Na^+], the entry is “did not change the emission ratio”; as for `CC(=O)O` [acetate], “did not change the emission ratio”; as for `O=C(O)/C=C(/CC(=O)O)C(=O)O` [cis-aconitate], “did not change the emission ratio”.
Regarding `O=C(O)CC(O)(CC(=O)O)C(=O)O` [citrate], in the test with FILLac10N0C (50 μM compound), the “fluorescence emission ratio change” value is “did not change the emission ratio”.
Take `O=C(CO)[C@@H](O)[C@H](O)[C@H](O)CO` [fructose]: the “fluorescence emission ratio change” value with FILLac10N0C (50 μM compound) was “did not change the emission ratio”.
For the compound `O=C(O)/C=C/C(=O)O` [fumarate], the “fluorescence emission ratio change” value with FILLac10N0C (50 μM compound) is “did not change the emission ratio”.
As to `OC[C@H]1OC(O)[C@H](O)[C@@H](O)[C@@H]1O` (stereo partly shown) [glucose], the “fluorescence emission ratio change” value in the test with FILLac10N0C (50 μM compound) is recorded as “did not change the emission ratio”.
Still for that read-out and setting: as for `O=CC(=O)O` [glyoxylate], the entry is “did not change the emission ratio”; as for `O=C(O)CC(=O)C(=O)O` [oxaloacetate], “did not change the emission ratio”.
With `CC(=O)C(=O)O` [pyruvate], the “fluorescence emission ratio change” value in the test on FILLac10N0C (50 μM compound) is reported as “did not change the emission ratio”. The “effect on detection of L-lactate by FILLac10N0C” value with FILLac10N0C (50 μM of the compound present in the L-lactate dose-response) is reported as “not affected”.
Regarding `O=C(O)CCC(=O)O` [succinate], the “fluorescence emission ratio change” value in the test with FILLac10N0C was “did not change the emission ratio”.
